Test results as given in patent publication US20230027295A1, “FXIA INHIBITORS AND PREPARATION METHOD THEREFOR AND PHARMACEUTICAL USE THEREOF” (Shenzhen Salubris Pharmaceuticals Co., Ltd., priority 2019, published 2023).

Assays:
hKallikrein = target: T1, hKallikrein (Homo sapiens, UniProt P03952); assay: Selectivity to coagulation factors: kallikrein; type: biochemical
T1 construct: purchased LOT180223
Procedure: Example 52: Investigation of the Selectivity of the Compounds of the Present Invention to Coagulation Factors
Enzyme: hFXa: Human Factor Xa: 71nkat. hFIIa: HT5146L. hFVIIa: Human Factor VIIa: hFVIIa 4591L. kallikrein: LOT180223.
kallikrein buffer: 50 mM Tris, 50 mM Mimidazole and 150 mM NaCl (pH 8.2).
10 mM test compound dissolved in 100% DMSO was diluted with 100% DMSO to 1000, 200, 40, 8, 1.6 μM. 98 μL of enzyme solution was added to each well of a 96-well plate, while 98 μL of buffer was added to the blank wells. 2 μL of compounds of different concentrations were added, while the blank and control wells were added with DMSO instead. They were mixed with a shaker, and incubated at 37° C. for 20 min.
The concentrations of hFXa and S-2222™ were FXa (1:28) and 800 μmol/L, respectively. The concentrations of hFIIa and S-2238™ were hFIIa (0.06 U/ml) and 500 μmol/L, respectively. The concentrations of hFVIIa and S-2288™ were hFVIIa (80 nM) and 1600 μmol/L, respectively. The concentrations of kallikrein and substrate were kallikrein (20 nM) and 1600 μmol/L, respectively.
Finally, 100 μL substrate was added to each well, and its absorbance was measured at 405 nm.

[1] = Cynomolgus monkey pharmacokinetics; type: in vivo; parameters: AUC: concentration or dose not given beside the values
Text: Example 53: Investigation of the Pharmacokinetic Characteristics of the Compounds of the Present Invention
SD rats: male, 180-250 g, purchased from Guangdong Medical Laboratory Animal Center. Cynomolgus monkey: male, 4-6 kg, purchased from Guangzhou Chunsheng Biological Research Institute Co., Ltd. Beagle dog: male, 8-12 kg, developed in Kanglong Chemical (Ningbo) New Drug Technology Co., Ltd.
Reagents: DMSO (dimethyl sulfoxide), PEG-400 (polyethylene glycol 400), normal brine, heparin, acetonitrile, formic acid, and propranolol (internal standard) are commercially available.
Instrumentation: Thermo Fisher Scientific LC-MS (U300 UPLC, TSQ […] ULTRA triple quadrupole mass spectrometer).
The compound was weighed and dissolved in DMSO-PEG-400-physiological brine (5:60:35, v/v/v) system. After the rats/monkeys were administered intravenously or by gavage, 200 μL of venous blood was collected at 5 min (not collected when administered by gavage), 15 min, 30 min, 1 h, 2 h, 4 h, 6 h, 8 h, and 24 h in heparinized EP tubes, centrifuged at 12000 rpm for 2 min, and the plasma was frozen at −80° C. for testing. A certain amount of the test substance was precisely weighed and dissolved in DMSO to 1 mg/mL, which was used as a stock solution. An appropriate amount of compound stock solution was accurately pipetted and diluted with acetonitrile to prepare a standard series of solutions. 20 μL of each of the above standard series solutions were accurately pipetted, added with 180 μL of blank plasma, vortexed and mixed to prepare plasma samples equivalent to plasma concentrations of 1, 3, 10, 30, 100, 300, 1000, 3000 and 5000 ng/mL. Two-sample analysis was performed for each concentration to establish a standard curve. 20 μL of plasma was taken out, added with 200 μL of internal standard propranolol (5 ng/mL) in acetonitrile, vortexed and mixed. It was centrifuged at 4000 rpm for 5 min, and the supernatant was collected for LC-MS analysis. LC-MS detection conditions were as follows:
Chromatographic column: Thermo Scientific […] GOLD C-18 UPLC column, 100*2.1 mm, 1.9 μm.
Mobile phase: water (0.1% formic acid)-acetonitrile for gradient elution according to the table below.
After blood drug concentrations being detected by LC-MS, WinNonlin 6.1 software was used to calculate pharmacokinetic parameters by non-compartmental model method.

CYP2C8 = target: T2, CYP2C8 (Homo sapiens, UniProt P10632); assay: CYP enzyme inhibition in liver microsomes: CYP2C8; type: in vitro ADME; conditions: 0.2 mg/mL liver microsomes
T2 construct: Liver microsomes (150-donor, Corning, Cat. 452117; Lot; 38292), NADPH; tissue Corning 452117; host or cells: liver microsomes, 150-donor pool
T2 sequence (P10632 1-490): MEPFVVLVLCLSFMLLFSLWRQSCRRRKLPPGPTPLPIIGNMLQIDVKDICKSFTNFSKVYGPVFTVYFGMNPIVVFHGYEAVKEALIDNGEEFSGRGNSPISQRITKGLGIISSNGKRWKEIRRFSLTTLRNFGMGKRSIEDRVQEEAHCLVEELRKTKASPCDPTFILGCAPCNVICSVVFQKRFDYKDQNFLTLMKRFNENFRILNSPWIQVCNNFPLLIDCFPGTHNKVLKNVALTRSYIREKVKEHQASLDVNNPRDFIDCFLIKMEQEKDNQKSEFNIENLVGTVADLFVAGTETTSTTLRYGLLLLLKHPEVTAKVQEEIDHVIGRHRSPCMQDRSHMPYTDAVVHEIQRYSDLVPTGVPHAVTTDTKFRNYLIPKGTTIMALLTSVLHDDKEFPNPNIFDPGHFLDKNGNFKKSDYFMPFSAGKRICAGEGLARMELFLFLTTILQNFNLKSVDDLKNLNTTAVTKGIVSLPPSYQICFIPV
Procedure: Example 55: Investigation of CYP Enzyme Inhibition by the Compounds of the Present Invention Liver microsomes (150-donor, Corning, Cat. 452117; Lot. 38292), NADPH. A 0.2 mg/mL microsome system was prepared, each test substance and substrate were added, and the final concentration of the test substance was 50 μM. After pre-incubating for 8 min, 10 mM NADPH was added to start the reaction, and the final concentration of NADPH was 1 mM. After a period of incubation, an internal standard such as methanol was added to stop the reaction. The amount of substrate metabolites generated in each reaction well was detected. Data processing: Taking the metabolite generation in the blank well as 100%, the reduction of metabolite generation in each well of the test substance was calculated, and the inhibition rate was calculated.

T1 sequence (P03952 391-638 limits assumed): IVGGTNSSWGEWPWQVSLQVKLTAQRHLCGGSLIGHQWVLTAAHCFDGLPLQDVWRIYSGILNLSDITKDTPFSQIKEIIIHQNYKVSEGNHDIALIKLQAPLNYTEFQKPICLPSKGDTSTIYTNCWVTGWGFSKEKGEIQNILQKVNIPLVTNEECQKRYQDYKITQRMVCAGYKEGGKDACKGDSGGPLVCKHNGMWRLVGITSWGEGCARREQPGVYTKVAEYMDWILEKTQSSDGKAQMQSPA
T1 sequence (P03952 20-390 partner limits assumed): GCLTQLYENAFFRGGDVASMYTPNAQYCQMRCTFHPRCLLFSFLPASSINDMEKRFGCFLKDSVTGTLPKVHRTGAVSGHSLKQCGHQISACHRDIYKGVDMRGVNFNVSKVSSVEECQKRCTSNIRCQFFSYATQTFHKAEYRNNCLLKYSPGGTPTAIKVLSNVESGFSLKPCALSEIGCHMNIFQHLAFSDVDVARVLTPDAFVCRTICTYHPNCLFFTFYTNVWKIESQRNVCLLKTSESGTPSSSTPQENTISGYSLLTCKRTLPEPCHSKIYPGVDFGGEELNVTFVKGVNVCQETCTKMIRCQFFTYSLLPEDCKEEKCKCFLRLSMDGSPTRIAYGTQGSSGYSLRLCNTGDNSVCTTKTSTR

SMILES	IC50 (hKallikrein)	F ([1]; ig)	AUC ([1]; male, plasma, iv)	Cmax ([1]; male, plasma, iv)	Tmax ([1]; male, plasma, iv)	clearance ([1]; male, plasma, iv)	half-life ([1]; male, plasma, iv)	Vd ([1]; male, plasma, iv, read-out: Vss)	AUC ([1]; male, plasma, po, ig)	Cmax ([1]; male, plasma, po, ig)	Tmax ([1]; male, plasma, po, ig)	half-life ([1]; male, plasma, po, ig)	IC50 (CYP2C8)
COc1nn([C@@H](Cc2ccccc2)C(=O)Nc2ccc(C(=O)O)cc2)c(=O)cc1-c1cc(Cl)ccc1C(C)=O [Example 19, (S)-4-(2-(4-(2-acetyl-5-chlorophenyl)-3-methoxy-6-oxopyridazin-1(6H)-yl)-3-phenylpropanamido)benzoic acid]	524 ± 60.2 nM	17.3%	1430 ng·h/mL	2690 ng/mL	0.083 h	12 mL/min/kg	170 min	0.65 L/kg	2480 ng·h/mL	198 ng/mL	2.5 h	424 min	~50 µM
CCC(=O)c1ccc(Cl)cc1-c1cc(=O)n([C@@H](Cc2ccccc2)C(=O)Nc2ccc(C(=O)O)cc2)nc1OC [Example 32]	103 ± 14.9 nM	–	–	–	–	–	–	–	–	–	–	–	~30 µM
